Reference: PubChem BioAssay (NCI)
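Compound exposure: 48 hours, 5 concentrations, 96-well plates. GI50 marks 50% less growth. The concentration for full growth arrest is given as TGI.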

Assays:
Experiment in all cases: NCI-60 cell line screen, 48 h
SF-539 CNS = test system: SF-539 CNS
SR leukemia = test system: SR leukemia
EKVX NSCLC = test system: EKVX NSCLC
NCI-H522 lung = test system: NCI-H522 lung
RXF 393 renal = test system: RXF 393 renal
ACHN renal = test system: ACHN renal
SK-MEL-5 melanoma = test system: SK-MEL-5 melanoma
IGROV1 ovarian = test system: IGROV1 ovarian
NCI-H226 lung = test system: NCI-H226 lung
A549 NSCLC = test system: A549 NSCLC

SMILES	TGI (SF-539 CNS)	TGI (SR leukemia)	TGI (EKVX NSCLC)	TGI (NCI-H522 lung)	TGI (RXF 393 renal)	TGI (ACHN renal)	GI50 (SK-MEL-5 melanoma)	TGI (SK-MEL-5 melanoma)	GI50 (SF-539 CNS)	GI50 (SR leukemia)	GI50 (EKVX NSCLC)	GI50 (IGROV1 ovarian)	TGI (IGROV1 ovarian)	GI50 (NCI-H522 lung)	GI50 (NCI-H226 lung)	TGI (NCI-H226 lung)	GI50 (A549 NSCLC)	TGI (A549 NSCLC)	GI50 (RXF 393 renal)	GI50 (ACHN renal)
Cc1cccc(NC(N)=S)c1	> 100 µM	> 100 µM	> 100 µM	> 100 µM	> 100 µM	> 100 µM	–	–	–	–	–	–	–	–	–	–	–	–	–	–
COc1ccc2c(c1)C(=O)c1c-2n(CCCCl)c(=O)c2cc([N+](=O)[O-])ccc12	0.456 µM	–	> 100 µM	0.963 µM	> 100 µM	–	0.498 µM	2.07 µM	0.11 µM	< 0.0125 µM	30.8 µM	0.0585 µM	6.57 µM	< 0.0265 µM	< 0.01 µM	> 100 µM	0.196 µM	> 100 µM	1.58 µM	< 0.01 µM
CN(C)C=O.CN(C)C=O.CN1C(C(=O)Nc2ccccn2)=C([O-])c2ccccc2S1(=O)=O.CN1C(C(=O)Nc2ccccn2)=C([O-])c2ccccc2S1(=O)=O.[Cu+2]	> 100 µM	> 100 µM	> 100 µM	> 100 µM	61.7 µM	> 100 µM	–	36.8 µM	–	–	–	36.3 µM	> 100 µM	–	–	–	–	> 100 µM	–	–
N=C(N)SC(c1ccccc1)c1ccccc1	37.7 µM	> 100 µM	33.6 µM	34.8 µM	19.4 µM	29.8 µM	–	32.2 µM	–	–	–	–	42.8 µM	–	–	60.9 µM	–	95.2 µM	–	–
Nc1ccc([As](=O)(O)O)cc1	> 100 µM	> 100 µM	> 100 µM	> 100 µM	> 100 µM	> 100 µM	–	> 100 µM	–	–	–	–	> 100 µM	–	–	> 100 µM	–	> 100 µM	–	–
Cn1ncc2c(=O)[nH]c(-c3ccccc3)nc21	> 100 µM	–	> 100 µM	> 100 µM	> 100 µM	> 100 µM	–	> 100 µM	–	–	–	–	> 100 µM	–	–	–	–	> 100 µM	–	–
CC(C)(c1ccccc1)c1ccc(Oc2ccc3c(c2)-c2nc-3nc3[nH]c(nc4nc(nc5[nH]c(n2)c2ccc(Oc6ccc(C(C)(C)c7ccccc7)cc6)cc52)-c2cc(Oc5ccc(C(C)(C)c6ccccc6)cc5)ccc2-4)c2ccc(Oc4ccc(C(C)(C)c5ccccc5)cc4)cc32)cc1	> 100 µM	–	> 100 µM	> 100 µM	97 µM	> 100 µM	–	> 100 µM	–	–	–	–	> 100 µM	–	–	–	–	> 100 µM	–	–
O=C(Nc1ccc(-n2ccc3c(NC(=O)c4ccccc4)ncnc32)cc1)Nc1ccc(Cl)c(C(F)(F)F)c1	3.9 µM	4.76 µM	4.99 µM	2.89 µM	3.28 µM	3.62 µM	2.43 µM	11.3 µM	0.654 µM	1.74 µM	1.97 µM	1.77 µM	3.91 µM	1.07 µM	2.39 µM	7.06 µM	1.67 µM	3.58 µM	1.5 µM	1.58 µM
O=C(O)\C=C/C=C/C=C/C=C/C(=O)O	> 100 µM	> 100 µM	> 100 µM	> 100 µM	> 100 µM	> 100 µM	–	> 100 µM	–	–	–	–	> 100 µM	–	–	> 100 µM	–	> 100 µM	–	–
CCCCCCCCCCCCCCC(C(=O)[O-])[n+]1ccccc1 (stereo not given)	> 100 µM	> 100 µM	> 100 µM	> 100 µM	74.7 µM	> 100 µM	–	> 100 µM	–	–	–	–	> 100 µM	–	–	> 100 µM	–	> 100 µM	–	–
